Assay results: patent US20260315475A1 (priority 2023, published 2026)

What was measured:
rat bone marrow = details: in vivo; cited from earlier work
[1] = single oral dose, radiolabeled, healthy subjects; cited from earlier work
CYP2C8 = details: role: substrate; in vitro; cited from earlier work
bacteria = details: in vitro; cited from earlier work
pro-fibrotic signaling = details: in vitro; cited from earlier work
[2] = age 18 to 77 years, weight 38.6 to 143 kg, mild to moderate renal impairment; cited from earlier work
[3] = 275 mg/kg/day oral, cited from earlier work
UGT1A1 = details: role: inhibitor; in vitro; cited from earlier work
[4] = tested on: human peripheral blood lymphocytes (HPBL); details: in vitro; cited from earlier work
CYP2C19 = details: role: inhibitor; in vitro; cited from earlier work
[5] = single dose, high-fat high-calorie meal vs fasted, healthy subjects; cited from earlier work
CYP2D6 = details: role: inhibitor; in vitro; cited from earlier work
[6] = Changes in belumosudil exposure in subjects with hepatic impairment compared to subjects with normal hepatic function; type: in vivo, human; details: single 200 mg
OATP1B1 = details: role: inhibitor; clinically relevant concentrations, in vitro; cited from earlier work
[7] = dogs; cited from earlier work
[8] = Embryo-fetal development studies in rats; type: in vivo; details: rat
Description: In the pilot study, maternal toxicity and embryo-fetal developmental effects were observed. Maternal toxicity (reduced body weight gain) occurred at 150 and 300 mg/kg/day doses. Increased post-implantation loss occurred at 50 and 300 mg/kg/day.

P-gp = details: role: substrate; in vitro; cited from earlier work
[9] = 200 and 400 mg; cited from earlier work
[10] = cited from earlier work
CYP3A4 = details: role: substrate; in vitro; cited from earlier work
[11] = pregnant rats, cited from earlier work
CYP1A2 = details: role: inhibitor; in vitro; cited from earlier work
[12] = in vivo; cited from earlier work
UGT1A9 = details: role: inhibitor; in vitro; cited from earlier work
BCRP = details: role: inhibitor; clinically relevant concentrations, in vitro; cited from earlier work
ROCK1 = details: cited from earlier work
[13] = moderate (Child-Pugh B) vs normal
[14] = severe (Child-Pugh C) vs normal

For `CC(C)NC(=O)COc1cccc(-c2nc(Nc3ccc4[nH]ncc4c3)c3ccccc3n2)c1` [belumosudil, 2-{3-[4-(1H-indazol-5-ylamino)-2-quinazolinyl]phenoxy}-N-(propan-2-yl) acetamide], which “genotoxicity, micronucleus” value (rat bone marrow) is on record?
Its value is “not genotoxic”.

And the “radioactivity recovered in feces” value [1]?
The value was 85%.

What about the “radioactivity recovered in feces as unchanged” value [1] of the same molecule?
Its value is 30%.

And the “radioactivity recovered in urine” value [1]?
Its value is “less than 5%”.

What about the “metabolism by CYP2C8” value (CYP2C8) of the same molecule?
Its value is “to a lesser extent”.

What about the “genotoxicity, bacterial mutagenicity (Ames)” value (bacteria) of the same molecule?
The value was “not genotoxic”.

And the aberrant pro-fibrotic signaling (pro-fibrotic signaling)?
Its aberrant pro-fibrotic signaling is “inhibits aberrant pro-fibrotic signaling”.

And the “differences in belumosudil pharmacokinetics by age, sex, weight, renal impairment” value [2]?
The value was “No clinically significant differences”.

And the “adverse findings in female rats (pre-/post-implantation loss, viable embryos)” value [3]?
The value was “increased pre- or post-implantation loss and decreased number of viable embryos”.

And the “fertility of treated males or females” value [3]?
The value was “Fertility was reduced in both treated males or females”.

And the sperm findings ([3]; male rats)?
The sperm findings was “abnormal sperm findings (reduced motility, reduced count, and increased percentage of abnormal sperm)”.

What about the testes/epididymis organ changes ([3]; male rats) of the same molecule?
Its testes/epididymis organ changes is “reduced weight and degeneration”.

What about the UGT1A1 inhibition (UGT1A1) of the same molecule?
The UGT1A1 inhibition was “inhibitor”.

What about the CYP2C19 inhibition (CYP2C19) of the same molecule?
Its CYP2C19 inhibition is “inhibitor”.

What about the “increase in AUC with food” value [5] of the same molecule?
The value was 2 times.

What about the “increase in Cmax with food” value [5] of the same molecule?
Its value is 2.2 times.

What about the CYP2D6 inhibition (CYP2D6) of the same molecule?
The CYP2D6 inhibition was “inhibitor”.

What about the “AUC change, free concentrations: decrease” value ([6]; mild (Child-Pugh A) vs normal) of the same molecule?
Its value is 19%.

What about the “AUC change, total (free + bound): increase” value ([6]; mild (Child-Pugh A) vs normal) of the same molecule?
The value was 1.4-fold.

And the “Cmax change, free concentrations: decrease” value ([6]; mild (Child-Pugh A) vs normal)?
Its value is 14%.

And the “Cmax change, total (free + bound): increase” value ([6]; mild (Child-Pugh A) vs normal)?
Its value is 1.2-fold.

And the “AUC change, free concentrations: increase” value [6, 13]?
The value was 1.4-fold.

And the “AUC change, total (free + bound): increase” value [6, 13]?
The value was 1.5-fold.

What about the “Cmax change, free concentrations: decrease” value [6, 13] of the same molecule?
Its value is 12%.

And the “Cmax change, total (free + bound): decrease” value [6, 13]?
Its value is 6%.

What about the “AUC change, free concentrations: increase” value [6, 14] of the same molecule?
The value was 16-fold.

And the “AUC change, total (free + bound): increase” value [6, 14]?
The value was 4.2-fold.

And the “Cmax change, free concentrations: increase” value [6, 14]?
The value was 5.4-fold.

What about the “Cmax change, total (free + bound): increase” value [6, 14] of the same molecule?
Its value is 1.3-fold.

And the OATP1B1 inhibition (OATP1B1)?
The OATP1B1 inhibition was “inhibits”.

What about the “maternal exposure (AUC) multiple of human exposure with adverse developmental outcomes” value [8] of the same molecule?
Its value is ≥ 3 times the human exposure.

What about the P-gp substrate (P-gp) of the same molecule?
Its P-gp substrate is “substrate”.

What about the “dose proportionality of Cmax and AUC” value [9] of the same molecule?
The value was “increased in an approximately proportional manner”.

And the “dose with decreased follicular development in ovaries” value ([10]; rats)?
Its value is 275 mg/kg/day.

What about the “reversal of reproductive organ changes” value ([10]; recovery period, rats and dogs) of the same molecule?
Its value is “partially or fully reversed”.

And the “metabolism by CYP3A4” value (CYP3A4)?
Its value is “primarily metabolized”.

What about the “doses with fetal malformations” value ([11]; oral, pilot study, absence of anus and tail, omphalocele, dome shaped head) of the same molecule?
Its value is ≥ 50 mg/kg/day.

What about the “maternal exposure (AUC) causing embryo-fetal mortality and malformations vs patients” value ([11]; organogenesis) of the same molecule?
The value was “less than those in patients at the recommended dose”.

And the CYP1A2 inhibition (CYP1A2)?
The CYP1A2 inhibition was “inhibitor”.

What about the “activity in animal models of chronic GVHD” value [12] of the same molecule?
Its value is “demonstrates activity”.

What about the UGT1A9 inhibition (UGT1A9) of the same molecule?
Its UGT1A9 inhibition is “inhibitor”.

And the BCRP inhibition (BCRP)?
Its BCRP inhibition is “inhibits”.
